Measurements reported in patent US20120157464A1, “USE OF AZABICYCLOALKYL DERIVATIVES OR PYRROLIDINE-2-ONE DERIVATIVES FOR THE TREATMENT OR PREVENTION OF ATAXIA” (NOVARTIS AG, priority 2009, published 2012).

Tests used:
[1] = Oral bioavailability and brain penetration in mice; assay type: in vivo; settings: 30 μmol/kg p.o.; for concentration at 0.25 h / concentration at 0.5 h / concentration at 1 h / concentration at 2 h / concentration at 4 h / concentration at 8 h: plasma
Procedure: Assay: Compounds were orally (30 μmol/kg) administered. Male mice (30-35 g, OF1/ICstrain) were sacrificed at indicated time points after oral administration. Trunk-blood was collected in EDTA-containing tubes and the brain was removed and immediately frozen on dry ice. To 100 μl plasma 10 μl internal standard (1.0 μmol of a compound with solubility and ionization properties similar to test compounds) was added and extracted three times with 500 μl dichloromethane. The combined extracts were then dried under a stream of nitrogen and re-dissolved in 100 μl acetonitrile/water (70% acetonitrile). Brains were weighed and homogenized in water (1:5 w/v). Two 100 μl aliquots of each homogenate 4-10 μl of internal standard (same standard as used for the plasma samples) were extracted three times with 500 μl dichlorornethane and further processed as the plasma samples. Samples were separated on Beckmann high-performance liquid chromatography equipment system with an autosampler (Gilson 233XL).
The limit of detection (LOD), defined as the lowest concentration of the extracted standard sample with a signal to noise ratio of ˜3.

mice = assay: Social Recognition Test in mice; assay type: in vivo; settings: oral, familiar partner at 24 h vs time 0
Procedure: Assay: Social interactions between two experimental animals are influenced by their degree of familiarity: the better they know each other, the less time they spend on mutual scrutiny at each meeting. […] Memory enhancing agents (i.e. oxiracetam) facilitate learning to the extent that the previously met (familiar) partner is still remembered after 24 h, whereas in vehicle treated control animals the memory usually fades after less than 1 hour (Thor and Holloway, 1982) or after 2-3 hours.
Baseline-test: Pairs consisting of one adult and one young mouse were assigned at random to the experimental and control groups. In each pair only the adult mouse was orally treated 1 hour before the trial with either vehicle or the test compound. The duration of active contacts of the adult mouse with the young mouse was manually recorded over a period of 3 min, including the following behavioural, approach-related items: sniffing, nosing, grooming, licking, pawing and playing, anogenital exploration and orientation toward the young mouse; orientation, thereby, was defined as tip of nose of the adult mouse less than approximately 1 cm distant from the young mouse's body. […]

human α7-nAChR = target: T1, human α7-nAChR (Homo sapiens, UniProt P36544); assay: functional calcium (FLIPR) assay in GH3 cells recombinantly expressing human α7-nAChR; assay type: cell-based; settings: for EC50: GH3 cells expressing human α7-nAChR, calcium FLIPR, read-out: α7-nAChR activity Potency EC50
T1 construct: expressed in transfected cells; host or cells: GH3 cells
T1 sequence (P36544 23-502): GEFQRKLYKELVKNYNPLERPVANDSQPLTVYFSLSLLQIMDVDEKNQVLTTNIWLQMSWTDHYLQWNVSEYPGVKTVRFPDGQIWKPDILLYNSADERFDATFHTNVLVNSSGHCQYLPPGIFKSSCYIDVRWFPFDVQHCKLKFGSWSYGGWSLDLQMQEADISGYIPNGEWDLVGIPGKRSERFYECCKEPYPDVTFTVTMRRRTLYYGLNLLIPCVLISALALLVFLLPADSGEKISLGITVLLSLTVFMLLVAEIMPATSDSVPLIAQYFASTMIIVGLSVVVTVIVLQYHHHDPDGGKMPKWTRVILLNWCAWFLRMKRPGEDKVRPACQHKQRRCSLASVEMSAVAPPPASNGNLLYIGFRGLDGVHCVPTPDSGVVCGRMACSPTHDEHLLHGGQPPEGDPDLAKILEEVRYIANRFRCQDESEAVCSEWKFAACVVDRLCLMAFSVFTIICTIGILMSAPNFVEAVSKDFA
Procedure: Assay. To assess a7-nAChR activity, a functional assay was employed using GH3 cells that recombinantly expressed human α7-nAChR, 5×10^4 cells per well were seeded 72 h prior to the experiment on black 96-well plates (Costar) and incubated at 37° C. in a humidified atmosphere (5% CO2/95% air). On the day of the experiment, medium was removed by flicking the plates and replaced with 100 μl growth medium containing […] Fluo-4, (Molecular Probes) in the presence of 2.5 mM probenecid (Sigma). The cells were incubated at 37° C. in a humidified atmosphere (5% CO2/95% air) for 1 h. Plates were flicked to remove excess of Fluo-4, washed twice with Hepes-buffered salt solution (in mM: NaCl 130, KCl 5.4 CaCl2 2, MgSO4 0.8, NaH2PO4 0.9, glucose 25, Hepes 20, pH 7.4; HBS) and refilled with 100 μl of HBS containing antagonist when appropriate. The incubation in the presence of the antagonist lasted 3-5 minutes. Plates were placed in the cell plate stage of a FLIPR device (fluorescent imaging plate reader, Molecular Devices, Sunnyvale, Calif., USA).
After recording of the baseline (laser: excitation 488 nm at 1 W, CCD camera opening of 0.4 seconds) the agonists (50 μl) were added to the cell plate using the FLIPR 96-tip pipettor while simultaneously recording the fluorescence, Calcium kinetic data were normalized to the maximal fitted response induced by epibatidine, which is a full agonist at α7-nAChR, Four parameter Hill equations were fitted to the concentration-response. Values of Emax (maximal effect in % compared to the epibatidine response) and EC50 (concentration producing half the maximal effect in μM) were derived from this fit.
(§1) Assay described in: D Feuerbach et al, Neuropharmacology (2005), 48, 215-227. To assess the activity of the compound of the invention on the human neuronal nAChR α4β2, a similar functional assay is carried out using a human epithelial cell line stably expressing the human α4β2 subtype (Michelmore et al., Naunyn-Schmiedeberg's Arch. Pharmacol. (2002) 366, 235),

[2] = target: T2, human neuronal nAChR α4β2 (Homo sapiens, UniProt P17787+P43681); assay: similar functional assay in a human epithelial cell line stably expressing the human α4β2 subtype; assay type: cell-based
T2 construct: expressed in transfected cells
T2 sequence (P43681 29-627 limits assumed): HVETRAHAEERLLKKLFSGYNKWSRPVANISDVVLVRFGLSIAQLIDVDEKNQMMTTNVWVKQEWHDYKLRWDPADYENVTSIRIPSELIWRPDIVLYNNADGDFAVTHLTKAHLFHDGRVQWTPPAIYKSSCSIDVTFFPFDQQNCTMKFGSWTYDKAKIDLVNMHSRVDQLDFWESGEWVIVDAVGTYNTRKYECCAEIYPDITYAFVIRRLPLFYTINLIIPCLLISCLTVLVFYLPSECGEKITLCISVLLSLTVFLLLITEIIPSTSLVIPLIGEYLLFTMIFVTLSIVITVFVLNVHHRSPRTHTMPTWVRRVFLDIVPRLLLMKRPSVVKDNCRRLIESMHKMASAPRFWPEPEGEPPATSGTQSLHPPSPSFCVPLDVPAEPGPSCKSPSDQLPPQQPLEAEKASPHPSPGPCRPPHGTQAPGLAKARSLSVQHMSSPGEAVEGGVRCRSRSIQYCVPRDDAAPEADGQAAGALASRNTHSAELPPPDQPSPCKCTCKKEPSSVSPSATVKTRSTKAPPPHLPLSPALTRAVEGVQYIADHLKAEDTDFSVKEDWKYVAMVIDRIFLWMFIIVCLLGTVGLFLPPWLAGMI
T2 sequence (P17787 26-502): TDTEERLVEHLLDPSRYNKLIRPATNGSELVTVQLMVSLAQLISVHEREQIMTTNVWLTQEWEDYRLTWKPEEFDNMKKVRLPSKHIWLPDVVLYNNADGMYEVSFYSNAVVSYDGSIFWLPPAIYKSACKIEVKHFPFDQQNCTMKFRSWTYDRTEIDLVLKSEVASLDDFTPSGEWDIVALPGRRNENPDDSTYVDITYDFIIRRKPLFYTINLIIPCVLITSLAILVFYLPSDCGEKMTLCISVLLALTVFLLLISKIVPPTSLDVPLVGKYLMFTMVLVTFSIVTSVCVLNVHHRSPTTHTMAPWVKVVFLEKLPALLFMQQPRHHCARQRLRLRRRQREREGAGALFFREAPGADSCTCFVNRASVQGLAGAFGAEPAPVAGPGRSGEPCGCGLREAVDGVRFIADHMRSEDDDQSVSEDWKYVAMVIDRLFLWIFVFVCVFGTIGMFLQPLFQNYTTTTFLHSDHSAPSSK
Procedure: as §1

FRDA = settings: cited from earlier work
[3] = clinical use in humans; cited from earlier work
patients with FRDA = settings: two patients with FRDA, varenicline p.o. 0.5 mg/kg per day; cited from earlier work
patients with SCA3/SCA14 = settings: two patients with SCA3/SCA14, varenicline p.o. 0.5 mg/kg per day; cited from earlier work
[4] = male, OF1/IC, mouse, brain, po, 30 umol/kg, 0.5 hour, read-out: Ratio Brain/plasma
[5] = male, OF1/IC, mouse, brain, po, 30 umol/kg, 1 hour, read-out: Ratio Brain/plasma
[6] = male, OF1/IC, mouse, brain, po, 30 umol/kg, 2 hour, read-out: Ratio Brain/plasma
[7] = male, OF1/IC, mouse, brain, po, 30 umol/kg, 4 hour, read-out: Ratio Brain/plasma
[8] = male, OF1/IC, mouse, brain, po, 30 umol/kg, 0.25 hour, read-out: Ratio Brain/plasma
[9] = male, OF1/IC, mouse, brain, po, 30 umol/kg, 8 hour, read-out: Ratio Brain/plasma
[10] = male, OF1/IC, mouse, po, 0.25 hour
[11] = male, OF1/IC, mouse, po, 0.5 hour
[12] = male, OF1/IC, mouse, po, 1 hour
[13] = male, OF1/IC, mouse, po, 2 hour
[14] = male, OF1/IC, mouse, po, 4 hour
[15] = male, OF1/IC, mouse, po, 8 hour

| SMILES | Brain ([1]; 0.5 hour) | Brain ([1]; 1 hour) | Brain ([1]; 2 hour) | Brain ([1]; 4 hour) | Brain ([1]; 24 hour) | Kp at 0.5 h [1, 4] | Kp at 1 h [1, 5] | Kp at 2 h [1, 6] | Kp at 4 h [1, 7] | IC50 [2] [µM] | Brain ([1]; 0.25 hour) | Brain ([1]; 8 hour) | Kp at 0.25 h [1, 8] | Kp at 8 h [1, 9] | concentration at 0.25 h [1, 10] [nM] | concentration at 0.5 h [1, 11] [nM] | concentration at 1 h [1, 12] [nM] | concentration at 2 h [1, 13] [nM] | concentration at 4 h [1, 14] [nM] | concentration at 8 h [1, 15] [nM] | also measured |
| --- | --- | --- | --- | --- | --- | --- | --- | --- | --- | --- | --- | --- | --- | --- | --- | --- | --- | --- | --- | --- | --- |
| C[C@H](OC(=O)N[C@@H]1CN2CCC1CC2)c1ccccc1F [Compound A-1, (S)-(1-aza-bicyclo[2.2.2]oct-3-yl)-carbamic acid S-1-(2-fluoro-phenyl)ethylester] | 706.3 ± 153.4 pmoles/g ± SD | 573.7 ± 109.3 pmoles/g ± SD | 191.9 ± 34.9 pmoles/g ± SD | 104.6 ± 39.6 pmoles/g ± SD | 9.1 ± 2.7 pmoles/g ± SD | 1.1 | 0.8 | 1.1 | 1.2 | 23.4 |  |  |  |  |  |  |  |  |  |  | Plasma ([1]; 0.5 hour): 634.9 ± 261.3 pmoles/ml ± SD; Plasma ([1]; 1 hour): 684.7 ± 339.6 pmoles/ml ± SD; Plasma ([1]; 2 hour): 168.2 ± 91.3 pmoles/ml ± SD; Plasma ([1]; 4 hour): 85.0 ± 54.3 pmoles/ml ± SD; Brain ([1]; 6 hour): 40.5 ± 12.1 pmoles/g ± SD; Plasma ([1]; 6 hour): 29.5 ± 13.8 pmoles/ml ± SD; Plasma ([1]; 24 hour): 3.8 ± 0.6 pmoles/ml ± SD; Kp at 6 h ([1]; male, OF1/IC, mouse, brain, po, 30 umol/kg, 6 hour, read-out: Ratio Brain/plasma): 1.4; Kp at 24 h ([1]; male, OF1/IC, mouse, brain, po, 30 umol/kg, 24 hour, read-out: Ratio Brain/plasma): 2.4; Reduction in time scrutinizing in % ± SEM at 24 h (mice; dose 3 mg/kg): 52 ± 4 % ± SEM; α7-nAChR activity Efficacy compared to epibatidine (100%) (human α7-nAChR; Emax, maximal effect in % compared to the epibatidine response): 83% |
| C[C@H]1[C@H](Oc2ccc(-c3ccc4[nH]ccc4c3)nn2)C2CCN1CC2 [Compound B-13, (2S,3R)-3-[6-(1H-indol-5-yl)-pyridazin-3-yloxy]-2-methyl-1-aza-bicyclo[2.2.2]octane] | 2960 ± 706 pmoles/g ± SD | 2940 ± 335 pmoles/g ± SD | 1260 ± 172 pmoles/g ± SD | 379 ± 134 pmoles/g ± SD | 13 ± 4 pmoles/g ± SD | 1.31 | 1.89 | 1.07 | 0.88 | 4.22 | 1884 ± 291 pmoles/g ± SD | 93 ± 30 pmoles/g ± SD | 0.86 | 1.17 | 2200 ± 397 | 2260 ± 419 | 1550 ± 523 | 1170 ± 252 | 429 ± 167 | 80 ± 23 | Reduction in time scrutinizing in % ± SEM at 24 h (mice; dose 0.3 mg/kg): 37 ± 7 % ± SEM; EC50 (human α7-nAChR): 0.013 µM; EC50 [2]: > 100 µM |
| c1cc2cc(-c3cnc(O[C@H]4CCN5CCC[C@@H]4C5)nc3)ccc2[nH]1 [Compound C-1, (4S,5R)-4-[5-(1H-indol-5-yl)-pyrimidin-2-yloxy]-1-aza-bicyclo[3.3.1]nonane] | 1405 ± 539 pmoles/g ± SD | 1458 ± 189 pmoles/g ± SD | 1478 ± 259 pmoles/g ± SD | 842 ± 187 pmoles/g ± SD |  | 0.41 | 1.17 | 1.69 | 1.11 | 9.33 | 620 ± 221 pmoles/g ± SD | 362 ± 62 pmoles/g ± SD | 0.39 | 1.51 | 1600 ± 758 | 3410 ± 956 | 1240 ± 583 | 875 ± 261 | 762 ± 159 | 239 ± 27 | EC50 (human α7-nAChR): 0.024 µM; EC50 [2]: > 100 µM |
| Cc1c(O)c(=O)ccn1C [deferiprone] |  |  |  |  |  |  |  |  |  |  |  |  |  |  |  |  |  |  |  |  | effects in clinical trials for FRDA (FRDA): showed effects in clinical trials |
| COC1=C(OC)C(=O)C(CCCCCCCCCCO)=C(C)C1=O [idebenone] |  |  |  |  |  |  |  |  |  |  |  |  |  |  |  |  |  |  |  |  | effects in clinical trials for FRDA (FRDA): showed effects in clinical trials |
| c1cnc2cc3c(cc2n1)C1CNCC3C1 [varenicline, 7,8,9,10-tetrahydro-6,10-methano-6H-pyrazino-(2,3-h)(3)-benzazepine] |  |  |  |  |  |  |  |  |  |  |  |  |  |  |  |  |  |  |  |  | adverse effects reported during clinical use [3]: nausea, sleep disturbance, constipation, vivid dreams, flatulence and vomiting; ataxia improvements in patients (patients with FRDA): showed improvements; ataxia improvements in patients (patients with SCA3/SCA14): showed improvements |
